Results published in ChEMBL document CHEMBL4507268 (2021).

How the values were obtained:
Conditions in all cases: Compound concentration 1.0 uM
[1] = biological target: T1, Dual specificity mitogen-activated protein kinase kinase 6 (Homo sapiens) (UniProt P52564)
T1 sequence (whole entry): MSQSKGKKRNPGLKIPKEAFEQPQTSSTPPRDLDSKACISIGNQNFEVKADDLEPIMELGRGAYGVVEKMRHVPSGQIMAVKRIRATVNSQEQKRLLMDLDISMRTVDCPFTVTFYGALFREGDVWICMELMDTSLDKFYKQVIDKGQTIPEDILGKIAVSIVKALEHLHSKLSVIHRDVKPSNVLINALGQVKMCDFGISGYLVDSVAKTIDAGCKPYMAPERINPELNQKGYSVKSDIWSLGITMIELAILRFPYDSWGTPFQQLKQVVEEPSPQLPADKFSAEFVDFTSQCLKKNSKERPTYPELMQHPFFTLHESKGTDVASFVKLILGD

[2] = biological target: T2, Tyrosine-protein kinase TXK (Homo sapiens) (UniProt P42681)
T2 sequence (whole entry): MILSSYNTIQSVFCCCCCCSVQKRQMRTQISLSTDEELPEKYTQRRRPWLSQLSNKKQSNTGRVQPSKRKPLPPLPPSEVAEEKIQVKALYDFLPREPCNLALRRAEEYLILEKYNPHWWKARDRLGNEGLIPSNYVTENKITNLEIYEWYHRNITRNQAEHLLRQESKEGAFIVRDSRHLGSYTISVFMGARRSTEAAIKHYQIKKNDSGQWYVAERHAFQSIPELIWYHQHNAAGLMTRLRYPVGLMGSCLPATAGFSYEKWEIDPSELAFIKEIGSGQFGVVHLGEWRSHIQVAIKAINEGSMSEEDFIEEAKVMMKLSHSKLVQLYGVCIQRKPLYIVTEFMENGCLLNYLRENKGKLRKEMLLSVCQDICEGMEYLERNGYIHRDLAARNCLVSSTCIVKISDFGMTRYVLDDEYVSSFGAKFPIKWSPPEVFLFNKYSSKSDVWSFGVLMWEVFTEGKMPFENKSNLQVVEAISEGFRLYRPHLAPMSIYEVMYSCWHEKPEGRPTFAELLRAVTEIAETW

[3] = biological target: LIM domain kinase 1 (Homo sapiens) (UniProt P53667)
[4] = biological target: Dual specificity mitogen-activated protein kinase kinase 2 (Homo sapiens) (UniProt P36507)
Chain of Dual specificity mitogen-activated protein kinase kinase 2 (Homo sapiens) (P36507 whole entry): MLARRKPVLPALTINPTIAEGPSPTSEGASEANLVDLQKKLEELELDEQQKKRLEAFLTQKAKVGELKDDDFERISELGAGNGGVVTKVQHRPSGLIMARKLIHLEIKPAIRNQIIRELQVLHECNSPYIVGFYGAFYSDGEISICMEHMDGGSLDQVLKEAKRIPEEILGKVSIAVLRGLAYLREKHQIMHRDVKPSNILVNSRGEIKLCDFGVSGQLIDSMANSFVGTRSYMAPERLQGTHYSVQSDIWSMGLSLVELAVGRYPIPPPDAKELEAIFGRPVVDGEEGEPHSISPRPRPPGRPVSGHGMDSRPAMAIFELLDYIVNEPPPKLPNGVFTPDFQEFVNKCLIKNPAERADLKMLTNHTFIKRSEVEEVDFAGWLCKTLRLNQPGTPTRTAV

[5] = biological target: T3, Serine/threonine-protein kinase MAK (Homo sapiens) (UniProt P20794)
T3 sequence (whole entry): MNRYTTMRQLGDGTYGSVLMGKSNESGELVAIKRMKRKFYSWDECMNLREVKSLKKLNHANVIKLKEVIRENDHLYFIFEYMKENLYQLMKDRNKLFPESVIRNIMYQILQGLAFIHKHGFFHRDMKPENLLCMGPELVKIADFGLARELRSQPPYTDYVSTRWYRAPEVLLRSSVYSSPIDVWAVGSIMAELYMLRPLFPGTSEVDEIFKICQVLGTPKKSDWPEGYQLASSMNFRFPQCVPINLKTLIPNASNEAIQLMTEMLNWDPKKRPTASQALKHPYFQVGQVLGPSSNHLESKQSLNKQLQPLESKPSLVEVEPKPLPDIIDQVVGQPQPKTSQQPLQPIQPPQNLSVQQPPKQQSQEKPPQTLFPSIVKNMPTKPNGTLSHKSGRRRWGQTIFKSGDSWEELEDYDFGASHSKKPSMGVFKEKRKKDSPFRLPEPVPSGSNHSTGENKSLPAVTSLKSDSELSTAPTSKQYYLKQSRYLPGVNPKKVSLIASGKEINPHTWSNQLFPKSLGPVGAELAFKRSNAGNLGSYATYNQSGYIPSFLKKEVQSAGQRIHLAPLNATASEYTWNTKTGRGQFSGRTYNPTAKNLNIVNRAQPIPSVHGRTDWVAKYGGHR

[6] = biological target: Mitogen-activated protein kinase 14 (Homo sapiens) (UniProt Q16539)
Chain of Mitogen-activated protein kinase 14 (Homo sapiens) (Q16539 whole entry): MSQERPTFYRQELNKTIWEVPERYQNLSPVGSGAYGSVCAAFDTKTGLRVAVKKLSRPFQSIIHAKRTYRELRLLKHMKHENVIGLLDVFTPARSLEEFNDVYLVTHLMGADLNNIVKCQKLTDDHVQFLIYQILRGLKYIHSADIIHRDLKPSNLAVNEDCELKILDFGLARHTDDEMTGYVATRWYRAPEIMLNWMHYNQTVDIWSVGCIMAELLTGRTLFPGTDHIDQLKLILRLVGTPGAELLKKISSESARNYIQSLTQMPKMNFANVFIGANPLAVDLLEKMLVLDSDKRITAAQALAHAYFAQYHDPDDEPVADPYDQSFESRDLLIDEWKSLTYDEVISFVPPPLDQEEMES

[7] = biological target: High affinity nerve growth factor receptor (Homo sapiens) (UniProt P04629)
Chain of High affinity nerve growth factor receptor (Homo sapiens) (P04629 33-796 limits assumed): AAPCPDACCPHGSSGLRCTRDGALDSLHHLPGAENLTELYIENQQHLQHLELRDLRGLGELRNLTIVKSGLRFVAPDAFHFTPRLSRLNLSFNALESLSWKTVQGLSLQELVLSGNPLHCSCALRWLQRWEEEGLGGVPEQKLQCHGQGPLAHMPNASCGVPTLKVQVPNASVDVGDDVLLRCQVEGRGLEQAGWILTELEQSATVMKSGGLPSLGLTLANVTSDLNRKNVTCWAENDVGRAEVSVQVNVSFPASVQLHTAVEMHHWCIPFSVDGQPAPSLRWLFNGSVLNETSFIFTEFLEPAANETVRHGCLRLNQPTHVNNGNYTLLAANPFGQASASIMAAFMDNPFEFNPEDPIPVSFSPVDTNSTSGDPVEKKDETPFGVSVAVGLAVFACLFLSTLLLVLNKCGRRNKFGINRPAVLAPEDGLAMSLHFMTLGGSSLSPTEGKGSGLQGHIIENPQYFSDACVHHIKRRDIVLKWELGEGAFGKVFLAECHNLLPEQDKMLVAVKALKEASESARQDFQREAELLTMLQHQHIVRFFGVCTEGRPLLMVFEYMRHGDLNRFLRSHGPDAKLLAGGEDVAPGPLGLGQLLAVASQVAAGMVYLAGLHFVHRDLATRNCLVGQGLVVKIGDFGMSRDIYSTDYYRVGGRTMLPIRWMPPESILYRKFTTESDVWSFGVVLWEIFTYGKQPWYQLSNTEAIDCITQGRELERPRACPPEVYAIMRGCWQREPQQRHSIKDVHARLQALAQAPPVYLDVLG

[8] = biological target: Insulin-like growth factor 1 receptor (Homo sapiens) (UniProt P08069)
Chain of Insulin-like growth factor 1 receptor (Homo sapiens) (P08069 31-736 limits assumed): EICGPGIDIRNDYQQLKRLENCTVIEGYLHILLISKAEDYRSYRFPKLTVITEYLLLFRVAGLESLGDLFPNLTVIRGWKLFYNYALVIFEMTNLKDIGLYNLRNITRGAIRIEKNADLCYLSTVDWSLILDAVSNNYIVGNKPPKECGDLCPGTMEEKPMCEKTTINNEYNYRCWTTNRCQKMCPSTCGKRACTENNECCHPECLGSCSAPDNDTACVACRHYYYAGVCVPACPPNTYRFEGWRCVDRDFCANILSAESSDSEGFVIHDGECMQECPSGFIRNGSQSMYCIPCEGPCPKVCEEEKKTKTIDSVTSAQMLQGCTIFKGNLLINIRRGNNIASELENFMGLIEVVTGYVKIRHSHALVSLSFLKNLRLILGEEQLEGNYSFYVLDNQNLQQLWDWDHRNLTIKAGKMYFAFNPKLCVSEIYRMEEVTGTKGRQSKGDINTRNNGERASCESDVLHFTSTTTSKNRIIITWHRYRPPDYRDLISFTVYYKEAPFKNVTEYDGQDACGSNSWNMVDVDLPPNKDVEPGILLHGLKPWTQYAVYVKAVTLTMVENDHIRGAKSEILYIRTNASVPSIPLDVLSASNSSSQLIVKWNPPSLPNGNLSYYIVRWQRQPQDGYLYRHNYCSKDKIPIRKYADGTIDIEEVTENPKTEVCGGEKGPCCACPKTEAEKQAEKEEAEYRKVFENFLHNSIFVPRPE
Chain of Insulin-like growth factor 1 receptor (Homo sapiens) (P08069 741-1367 limits assumed): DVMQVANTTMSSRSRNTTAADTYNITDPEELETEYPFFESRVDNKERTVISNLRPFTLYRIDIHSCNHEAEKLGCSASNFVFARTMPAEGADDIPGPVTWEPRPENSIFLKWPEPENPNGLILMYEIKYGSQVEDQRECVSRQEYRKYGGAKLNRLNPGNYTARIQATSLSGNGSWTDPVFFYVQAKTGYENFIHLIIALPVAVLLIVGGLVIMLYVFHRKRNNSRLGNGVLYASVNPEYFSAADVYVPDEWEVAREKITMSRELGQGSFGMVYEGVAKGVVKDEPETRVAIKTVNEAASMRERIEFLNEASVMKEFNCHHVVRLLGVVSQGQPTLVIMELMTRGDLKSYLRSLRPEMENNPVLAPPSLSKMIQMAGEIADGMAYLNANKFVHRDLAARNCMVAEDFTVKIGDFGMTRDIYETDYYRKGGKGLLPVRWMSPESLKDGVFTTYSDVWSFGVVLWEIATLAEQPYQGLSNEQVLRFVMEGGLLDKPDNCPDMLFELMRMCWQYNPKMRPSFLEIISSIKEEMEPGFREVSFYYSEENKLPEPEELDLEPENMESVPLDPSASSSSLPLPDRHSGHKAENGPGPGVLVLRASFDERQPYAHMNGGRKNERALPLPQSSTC

[9] = biological target: T4, Serine/threonine-protein kinase Nek9 (Homo sapiens) (UniProt Q8TD19)
T4 sequence (whole entry): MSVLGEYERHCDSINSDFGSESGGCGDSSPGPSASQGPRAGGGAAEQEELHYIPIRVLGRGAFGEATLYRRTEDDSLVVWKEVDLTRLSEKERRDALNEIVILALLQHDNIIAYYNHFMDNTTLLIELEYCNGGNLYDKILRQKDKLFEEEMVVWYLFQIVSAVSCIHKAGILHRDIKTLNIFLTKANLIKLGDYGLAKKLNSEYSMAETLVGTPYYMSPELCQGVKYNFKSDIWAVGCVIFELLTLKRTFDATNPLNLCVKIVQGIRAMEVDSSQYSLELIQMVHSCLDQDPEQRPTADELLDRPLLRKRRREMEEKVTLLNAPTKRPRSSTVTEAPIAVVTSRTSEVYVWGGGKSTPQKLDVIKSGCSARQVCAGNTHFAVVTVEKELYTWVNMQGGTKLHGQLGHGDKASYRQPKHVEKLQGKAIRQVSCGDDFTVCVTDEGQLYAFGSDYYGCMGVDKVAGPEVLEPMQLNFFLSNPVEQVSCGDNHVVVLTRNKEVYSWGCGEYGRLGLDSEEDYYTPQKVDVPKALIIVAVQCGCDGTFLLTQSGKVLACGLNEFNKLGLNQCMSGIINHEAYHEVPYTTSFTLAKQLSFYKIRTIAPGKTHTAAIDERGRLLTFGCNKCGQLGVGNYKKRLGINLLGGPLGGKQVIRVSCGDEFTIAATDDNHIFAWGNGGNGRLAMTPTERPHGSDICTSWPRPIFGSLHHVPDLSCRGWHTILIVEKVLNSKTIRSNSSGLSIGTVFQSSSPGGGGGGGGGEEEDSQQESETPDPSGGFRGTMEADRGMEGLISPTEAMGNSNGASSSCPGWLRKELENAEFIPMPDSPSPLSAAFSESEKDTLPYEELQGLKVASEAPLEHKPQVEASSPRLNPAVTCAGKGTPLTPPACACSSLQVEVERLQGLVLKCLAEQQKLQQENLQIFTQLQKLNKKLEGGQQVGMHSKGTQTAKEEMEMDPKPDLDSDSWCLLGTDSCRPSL

[10] = biological target: Epidermal growth factor receptor (Homo sapiens) (UniProt P00533)
Chain of Epidermal growth factor receptor (Homo sapiens) (P00533 whole entry): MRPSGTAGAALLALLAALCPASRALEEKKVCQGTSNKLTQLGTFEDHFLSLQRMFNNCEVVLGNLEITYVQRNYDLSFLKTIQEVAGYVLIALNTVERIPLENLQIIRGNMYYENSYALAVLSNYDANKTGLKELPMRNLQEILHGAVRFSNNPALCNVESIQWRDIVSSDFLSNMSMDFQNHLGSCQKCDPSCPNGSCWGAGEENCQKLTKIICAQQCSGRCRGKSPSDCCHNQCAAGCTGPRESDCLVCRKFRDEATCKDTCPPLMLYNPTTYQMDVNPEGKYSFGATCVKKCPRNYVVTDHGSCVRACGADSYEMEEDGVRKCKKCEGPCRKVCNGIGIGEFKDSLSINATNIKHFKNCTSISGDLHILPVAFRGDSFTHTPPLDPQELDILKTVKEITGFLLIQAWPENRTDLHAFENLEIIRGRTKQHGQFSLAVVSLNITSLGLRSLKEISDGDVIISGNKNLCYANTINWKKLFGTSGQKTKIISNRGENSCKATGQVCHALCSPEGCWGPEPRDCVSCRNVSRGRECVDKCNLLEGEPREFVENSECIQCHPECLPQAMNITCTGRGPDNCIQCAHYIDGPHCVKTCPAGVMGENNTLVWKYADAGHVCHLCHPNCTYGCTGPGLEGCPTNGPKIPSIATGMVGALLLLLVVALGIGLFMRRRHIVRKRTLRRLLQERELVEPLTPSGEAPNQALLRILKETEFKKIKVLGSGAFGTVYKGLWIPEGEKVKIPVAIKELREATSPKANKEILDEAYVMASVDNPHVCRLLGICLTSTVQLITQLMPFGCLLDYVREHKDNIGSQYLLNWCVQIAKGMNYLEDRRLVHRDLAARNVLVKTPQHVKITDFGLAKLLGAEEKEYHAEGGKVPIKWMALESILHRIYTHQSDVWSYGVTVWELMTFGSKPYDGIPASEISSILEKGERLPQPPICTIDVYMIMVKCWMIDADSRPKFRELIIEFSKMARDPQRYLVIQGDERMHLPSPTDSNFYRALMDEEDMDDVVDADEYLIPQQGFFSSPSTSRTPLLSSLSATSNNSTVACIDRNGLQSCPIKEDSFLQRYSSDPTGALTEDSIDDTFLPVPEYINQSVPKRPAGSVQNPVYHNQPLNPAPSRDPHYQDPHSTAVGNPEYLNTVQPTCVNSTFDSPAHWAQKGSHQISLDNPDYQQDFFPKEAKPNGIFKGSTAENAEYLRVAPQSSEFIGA

[11] = biological target: MAP kinase-activated protein kinase 2 (Homo sapiens) (UniProt P49137)
Chain of MAP kinase-activated protein kinase 2 (Homo sapiens) (P49137 whole entry, looked up): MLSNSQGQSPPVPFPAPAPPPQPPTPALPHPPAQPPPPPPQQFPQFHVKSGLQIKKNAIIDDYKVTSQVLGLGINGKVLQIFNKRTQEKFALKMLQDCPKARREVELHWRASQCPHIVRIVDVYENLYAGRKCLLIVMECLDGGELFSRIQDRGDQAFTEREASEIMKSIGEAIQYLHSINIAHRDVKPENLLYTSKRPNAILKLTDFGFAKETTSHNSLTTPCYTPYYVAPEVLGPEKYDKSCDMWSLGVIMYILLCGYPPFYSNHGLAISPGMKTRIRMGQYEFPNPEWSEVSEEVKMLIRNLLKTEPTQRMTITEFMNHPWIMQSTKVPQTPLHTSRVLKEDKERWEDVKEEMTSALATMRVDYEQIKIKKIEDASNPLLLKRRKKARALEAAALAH

Measured: % residual kinase activity

CN1CCN(c2cnc3c(C4CCN(C(=O)c5ccc(OC(F)(F)F)cc5N)CC4)ncnc3c2)CC1 [BAY-885]
inactive: [1] 99% | [2] 99% | [3] 93% | [4] 103% | [5] 125% | [6] 113% | [7] 110% | [8] 90% | [9] 92% | [10] 105% | [11] 81%
